Assay results from PubChem BioAssay AID200 (DTP/NCI, 2004).
Several values for one entry are separate records, joined by “and”; a condition that tells them apart may be missing. Identical values can stand only once. Toxic doses and inconclusive results are not listed. Where a SMILES comes first, the peptide text is derived from it. The star is where a group is joined. Cbz = O=C(OCc1ccccc1)*; Bn = c1ccc(C*)cc1

Test system: B6C3F1 mice, B16 melanoma ip, median survival T/C
Assay: NCI In Vivo Anticancer Drug Screen. Data for tumor model B16 Melanoma (intraperitoneal) in B6C3F1 mice
Conditions: endpoint: median survival time, higher = longer survival
Summary of the method: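 Values are T/C ratios: the measurement in treated animals divided by that in vehicle-treated controls, using survival or tumor size in mice carrying transplantable tumors.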

[1] = dose: 12.5 mg/kg/injection, schedule: Q01DX009 (ip), vehicle: Klucel (hydroxypropylcellulose) (HPC)
[2] = dose: 25.0 mg/kg/injection, schedule: Q01DX009 (ip), vehicle: Klucel (hydroxypropylcellulose) (HPC)
[3] = dose: 50.0 mg/kg/injection, schedule: Q01DX009 (ip), vehicle: Klucel (hydroxypropylcellulose) (HPC)
[4] = dose: 100.0 mg/kg/injection, schedule: Q01DX009 (ip), vehicle: Klucel (hydroxypropylcellulose) (HPC)
[5] = dose: 3.12 mg/kg/injection, schedule: Q01DX009 (ip), vehicle: saline with Tween-80
[6] = dose: 6.25 mg/kg/injection, schedule: Q01DX009 (ip), vehicle: saline with Tween-80
[7] = dose: 12.5 mg/kg/injection, schedule: Q01DX009 (ip), vehicle: saline with Tween-80
[8] = dose: 25.0 mg/kg/injection, schedule: Q01DX009 (ip), vehicle: saline with Tween-80
[9] = dose: 12.5 mg/kg/injection, schedule: Q01DX009 (ip), vehicle: saline
[10] = dose: 12.5 mg/kg/injection, schedule: Q01DX009 (ip), vehicle: suspension in saline
[11] = dose: 25.0 mg/kg/injection, schedule: Q01DX009 (ip), vehicle: saline
[12] = dose: 100.0 mg/kg/injection, schedule: Q01DX009 (ip), vehicle: saline
[13] = dose: 50.0 mg/kg/injection, schedule: Q01DX009 (ip), vehicle: saline with Tween-80
[14] = dose: 100.0 mg/kg/injection, schedule: Q01DX009 (ip), vehicle: saline with Tween-80
[15] = dose: 200.0 mg/kg/injection, schedule: Q01DX009 (ip), vehicle: saline with Tween-80
[16] = dose: 50.0 mg/kg/injection, schedule: Q01DX009 (ip), vehicle: saline
[17] = dose: 6.25 mg/kg/injection, schedule: Q01DX009 (ip), vehicle: Klucel (hydroxypropylcellulose) (HPC)
[18] = dose: 5.0 mg/kg/injection, schedule: Q01DX009 (ip), vehicle: saline
[19] = dose: 6.25 mg/kg/injection, schedule: Q01DX009 (ip), vehicle: saline
[20] = dose: 3.12 mg/kg/injection, schedule: Q01DX009 (ip), vehicle: saline

## CC(C)CCCCCCCCCCCCC(=O)NCC(=O)NC1C(C)OC(Nc2ncnc3nc[nH]c23)C(O)C1O (stereo not given)
dose: 0.25 mg/kg/injection, schedule: Q01DX008 (ip), vehicle: distilled water + Tween-80
  T/C: 95 % of control
dose: 0.25 mg/kg/injection, schedule: Q01DX009 (ip), vehicle: distilled water + Tween-80
  T/C: 112 % of control
dose: 0.5 mg/kg/injection, schedule: Q01DX008 (ip), vehicle: distilled water + Tween-80
  T/C: 95 % of control
dose: 0.5 mg/kg/injection, schedule: Q01DX009 (ip), vehicle: distilled water + Tween-80
  T/C: 112 % of control
dose: 1.0 mg/kg/injection, schedule: Q01DX008 (ip), vehicle: distilled water + Tween-80
  T/C: 98 % of control
dose: 2.0 mg/kg/injection, schedule: Q01DX008 (ip), vehicle: distilled water + Tween-80
  T/C: 111 % of control

## CNc1nc(NC)nc(NC)n1
[1]
  T/C: 91 % of control
[2]
  T/C: 96 % of control
[3]
  T/C: 100 % of control
[4]
  T/C: 106 % of control

## S=C(N/N=C1/CCCC/C1=N/NC(=S)N1CCOCC1)N1CCOCC1
dose: 1.56 mg/kg/injection, schedule: Q01DX009 (ip), vehicle: saline with Tween-80
  T/C: 124 % of control
[5]
  T/C: 116 % of control
[6]
  T/C: 119 % of control

## COc1ccc(C(Cn2ccnc2)Sc2ccc(Cl)c(Cl)c2)cc1 (stereo not given)
[5]
  T/C: 94 % of control
[6]
  T/C: 92 % of control and 96 % of control and 107 % of control
[7]
  T/C: 95 % of control and 96 % of control and 103 % of control
[8]
  T/C: 95 % of control and 97 % of control and 100 % of control

## C1OC1CO[C@@H]1CO[C@H]2[C@@H]1OC[C@H]2OCC1CO1 (stereo not given in full)
[9]
  T/C: 111 % of control
[10]
  T/C: 111 % of control
[11]
  T/C: 115 % of control
dose: 25.0 mg/kg/injection, schedule: Q01DX009 (ip), vehicle: suspension in saline
  T/C: 111 % of control
[12]
  T/C: 171 % of control and 182 % of control
dose: 100.0 mg/kg/injection, schedule: Q01DX009 (ip), vehicle: suspension in saline
  T/C: 153 % of control
dose: 200.0 mg/kg/injection, schedule: Q01DX009 (ip), vehicle: saline
  T/C: 220 % of control and 235 % of control
dose: 200.0 mg/kg/injection, schedule: Q01DX009 (ip), vehicle: suspension in saline
  T/C: 205 % of control

## C=C1C(O)C2(O)OCC34C(CC5C(C)=CC(=O)C(O)C5(C)C23)OC(=O)C(OC(=O)C/C=C(\C)CCCCC)C14 (stereo not given)
dose: 4.0 mg/kg/injection, schedule: Q01DX009 (ip), vehicle: saline + alcohol
  T/C: 187 % of control
dose: 4.8 mg/kg/injection, schedule: Q01DX009 (ip), vehicle: saline + Tween-80 + alcohol
  T/C: 156 % of control
dose: 8.0 mg/kg/injection, schedule: Q01DX009 (ip), vehicle: saline + Tween-80 + alcohol
  T/C: 154 % of control
dose: 8.0 mg/kg/injection, schedule: Q01DX009 (ip), vehicle: saline + alcohol
  T/C: 187 % of control

## O=C(Nc1ccc(Cl)c(Cl)c1)Nc1c(Oc2ccc(Cl)c(Cl)c2)ccc(Cl)c1S(=O)(=O)O
[6]
  T/C: 99 % of control
[7]
  T/C: 101 % of control
[8]
  T/C: 97 % of control
[13]
  T/C: 99 % of control
[14]
  T/C: 97 % of control
[15]
  T/C: 99 % of control

## CC(C)C(NC(=O)OC(C)(C)C)C(=O)O (stereo not given)
[4]
  T/C: 90 % of control

## Clc1ncnc2c1ncn2C1CCCO1 (stereo not given)
[11]
  T/C: 93 % of control
[16]
  T/C: 99 % of control
[12]
  T/C: 88 % of control and 94 % of control

## Cn1c(N)c(N=Nc2ccccc2Cl)c(=O)n(C)c1=O
[6]
  T/C: 92 % of control
[7]
  T/C: 101 % of control
[8]
  T/C: 89 % of control
[13]
  T/C: 92 % of control and 104 % of control
[14]
  T/C: 104 % of control

## CC(C)CC(NC(=O)C(CSCc1ccccc1)NC(=O)OCc1ccccc1)C(N)=O (stereo not given) (Cbz-Cys(Bn)-Leu-NH2; configuration not given here)
[1]
  T/C: 107 % of control
[2]
  T/C: 98 % of control
[3]
  T/C: 100 % of control

## Cn1c2ccccc2c2ccc3c(c21)C(=O)C=CC3=O
[17]
  T/C: 96 % of control
[1]
  T/C: 107 % of control

## C=CCNc1nc2c(s1)CCc1cc(OC)c(OC)cc1-2
[7]
  T/C: 103 % of control
[8]
  T/C: 116 % of control
[13]
  T/C: 107 % of control
[14]
  T/C: 100 % of control
[15]
  T/C: 103 % of control
dose: 400.0 mg/kg/injection, schedule: Q01DX009 (ip), vehicle: saline with Tween-80
  T/C: 103 % of control

## Cc1oc2c(C)c3oc(=O)cc(C)c3cc2c1CCl
[7]
  T/C: 91 % of control and 97 % of control
[8]
  T/C: 87 % of control and 88 % of control (2×)
[13]
  T/C: 102 % of control

## c1ccc2c3c(c4c(c2c1)CN(C1CCCCC1)CO4)OCN(C1CCCCC1)C3
dose: 3.12 mg/kg/injection, schedule: Q01DX009 (ip), vehicle: other
  T/C: 92 % of control
dose: 6.25 mg/kg/injection, schedule: Q01DX009 (ip), vehicle: other
  T/C: 89 % of control

## O=NN(CCCl)C(=O)NC1[C@H](O)CCC[C@@H]1O (stereo not given in full)
dose: 0.62 mg/kg/injection, schedule: Q01DX009 (ip), vehicle: saline
  T/C: 159 % of control
dose: 1.25 mg/kg/injection, schedule: Q01DX009 (ip), vehicle: saline
  T/C: 225 % of control
dose: 2.5 mg/kg/injection, schedule: Q01DX009 (ip), vehicle: saline
  T/C: 251 % of control
[18]
  T/C: 190 % of control

## NNC(=O)c1ccncc1
[19]
  T/C: 112 % of control
[9]
  T/C: 99 % of control
[11]
  T/C: 99 % of control
[16]
  T/C: 105 % of control
dose: 64.0 mg/kg/injection, schedule: Q01DX009 (ip), vehicle: saline
  T/C: 100 % of control
[12]
  T/C: 112 % of control
dose: 128.0 mg/kg/injection, schedule: Q01DX009 (ip), vehicle: saline
  T/C: 99 % of control

## CC(C)NC(=O)N(CCCCBr)N=O
[17]
  T/C: 98 % of control
dose: 12.0 mg/kg/injection, schedule: Q01DX009 (ip), vehicle: Klucel (hydroxypropylcellulose) (HPC)
  T/C: 118 % of control
[1]
  T/C: 98 % of control and 102 % of control
[2]
  T/C: 99 % of control and 102 % of control
[3]
  T/C: 116 % of control and 106 % of control
[4]
  T/C: 88 % of control and 96 % of control
dose: 200.0 mg/kg/injection, schedule: Q01DX009 (ip), vehicle: Klucel (hydroxypropylcellulose) (HPC)
  T/C: 102 % of control

## Nc1nnc[se]1
dose: 3.0 mg/kg/injection, schedule: Q01DX009 (ip), vehicle: saline with Tween-80
  T/C: 98 % of control
[5]
  T/C: 101 % of control
[6]
  T/C: 101 % of control and 102 % of control
dose: 12.0 mg/kg/injection, schedule: Q01DX009 (ip), vehicle: saline with Tween-80
  T/C: 103 % of control
[7]
  T/C: 109 % of control and 102 % of control
[8]
  T/C: 108 % of control (2×) and 105 % of control
[13]
  T/C: 108 % of control and 115 % of control

## C[CH2][Ge]([CH2]C)[CH2]C.C[CH2][Ge]([CH2]C)[CH2]C.C[CH2][Ge]([CH2]C)[O][Ge]([CH2]C)[CH2]C
dose: 3.13 mg/kg/injection, schedule: Q01DX009 (ip), vehicle: saline with Tween-80
  T/C: 89 % of control
[6]
  T/C: 93 % of control
[7]
  T/C: 87 % of control

## Nc1nc(=S)c2ncn(C3OC(CO)CC3O)c2[nH]1 (stereo not given)
[18]
  T/C: 110 % of control
dose: 10.0 mg/kg/injection, schedule: Q01DX009 (ip), vehicle: saline
  T/C: 122 % of control
dose: 40.0 mg/kg/injection, schedule: Q01DX009 (ip), vehicle: saline
  T/C: 94 % of control

## CCCCCCCCCCCCOCCCOP(=O)([O-])OCC[N+](C)(C)C
dose: 3.13 mg/kg/injection, schedule: Q01DX009 (ip), vehicle: saline
  T/C: 100 % of control
[19]
  T/C: 100 % of control
[9]
  T/C: 100 % of control
[11]
  T/C: 91 % of control

## c1cc(-c2cc3ccc(C4=NCCN4)cc3[nH]2)ccc1C1=NCCN1
[20]
  T/C: 111 % of control
dose: 3.12 mg/kg/injection, schedule: Q01DX009 (ip), vehicle: suspension in saline
  T/C: 104 % of control
[19]
  T/C: 108 % of control
dose: 6.25 mg/kg/injection, schedule: Q01DX009 (ip), vehicle: suspension in saline
  T/C: 94 % of control
[9]
  T/C: 100 % of control
[10]
  T/C: 96 % of control
[11]
  T/C: 95 % of control

## CC(=O)Nc1ccc(N=Nc2c(C)nn(C(=N)N)c2C)cc1
[20]
  T/C: 103 % of control
[19]
  T/C: 99 % of control
[9]
  T/C: 105 % of control
[11]
  T/C: 95 % of control
[16]
  T/C: 101 % of control

## O=C1OCC2C(=O)OCC12 (stereo not given)
[7]
  T/C: 99 % of control
[8]
  T/C: 99 % of control
[13]
  T/C: 102 % of control
[14]
  T/C: 101 % of control
[15]
  T/C: 106 % of control

## CN=C(NC)c1ccc(NC(=O)/C=C\c2ccc(/C=C/C(=O)Nc3ccc(C(=NC)NC)cc3)cc2)cc1
dose: 1.56 mg/kg/injection, schedule: Q01DX009 (ip), vehicle: Klucel (hydroxypropylcellulose) (HPC)
  T/C: 110 % of control
dose: 3.12 mg/kg/injection, schedule: Q01DX009 (ip), vehicle: Klucel (hydroxypropylcellulose) (HPC)
  T/C: 107 % of control
[17]
  T/C: 90 % of control
